Entries after “also recorded” stand apart in the source; their conditions may differ.
How the values were obtained:
[1] = test system: P. falciparum parasites (W2 strain); assay: Growth inhibition of cultured P. falciparum parasites (antiplasmodial activity); format: cell-based; conditions: Plasmodium falciparum, Erythrocyte, in human red blood cells, 48 h incubation, flow cytometry, read-out: IC50 against cultured P. falciparum parasites
Procedure: Plasmodium falciparum EC50 Determinations
The growth inhibition assay for P. falciparum was conducted as described previously with minor modifications. Briefly, P. falciparum strain W2 synchronized ring-stage parasites were cultured in human red blood cells in 96-well flat-bottom culture plates at 37° C., adjusted to 1% parasitemia and 2% hematocrit under an atmosphere of 3% O2, 5% CO2, and […] in a final volume of 0.1 mL per well in RPMI-1640 media supplemented with 0.5% Albumax, 2 mM L-glutamine, and […] in the presence of various concentrations of inhibitors. […] Following 48 h of incubation, the cells were fixed by adding 0.1 mL of 2% formaldehyde in phosphate buffered saline, pH=7.4 (PBS). Parasite growth was evaluated by flow cytometry on a FACsort (Becton Dickinson) equipped with AMS-1 loader (Cytek Development) after staining with 1 nM of the DNA dye YOYO-1 (Molecular Probes) in 100 mM NH4Cl, 0.1% Triton x-100 in 0.8% NaCl. Parasitemias were determined from dot plots (forward scatter vs fluorescence) using CELLQUEST software (Becton Dickinson). EC50 values for growth inhibition were determined from plots of percentage control parasitemia over inhibitor concentration using GraphPad Prism software.

[2] = Fe(II)-fragmentation assay followed by UPLC/MS; format: physicochemical; conditions: ferrous-ammonium sulfate with pH 7.4 Tris buffer; for fragmentation of the trioxolane / conversion to the common cyclohexanone intermediate A on exposure to Fe^2+: UPLC/MS
Procedure: Fe(II)-Fragmentation Assay To 1 mL of trioxolane analog in DMSO (1 mM) at 37° C. was added 1 mL of Tris containing 50 mM ferrous ammonium sulfate. At various time points, 40 μL aliquots of the resulting mixture were removed and spun down in a mini centrifuge for 20 seconds, 20 μL of the supernatant was removed and 5 μL was injected into the UPLC. The concentration of the fragments was determined by UV from UPLC (290 nm). The resulting UV curves were plotted using GraphPad Prism software.

IC50 [1] [µM]	alternate bicyclo[2.2.1]heptan-2-one product detected (regioselectivity of peroxide scission) [2]	Compound	rate of conversion to intermediate A relative to comparator 6a [2]	time point by which the conjugate is fully consumed ([2]; 37° C.) [min]	fragmentation of the trioxolane / conversion to the common cyclohexanone intermediate A on exposure to Fe^2+ ([2]; 37° C.)
0.024	–	O=C(O[C@@H]1CCC[C@]2(C1)OOC1(O2)C2CCCC1CCC2)N1CCCCC1C(O)c1cc(C(F)(F)F)nc2c(C(F)(F)F)cccc12 (stereo partly drawn) [6h]	–	–	–
0.074	No detectable quantity	O=C(O[C@@H]1CCC[C@]2(C1)OOC1(CC3CCC1C3)O2)N1CCCCC1C(O)c1cc(C(F)(F)F)nc2c(C(F)(F)F)cccc12 (stereo partly drawn) [6f]	moderately faster	≤ 11	rapid; also recorded: within minutes to clean conversion
0.024	–	O=C(O[C@@H]1CCC[C@]2(C1)OOC1(CC3CCC1CC3)O2)N1CCCCC1C(O)c1cc(C(F)(F)F)nc2c(C(F)(F)F)cccc12 (stereo partly drawn) [6g]	–	–	–
0.017	–	O=C(O[C@@H]1CCC[C@]2(C1)OOC1(O2)C2CC3CC(C2)CC1C3)N1CCCCC1C(O)c1cc(C(F)(F)F)nc2c(C(F)(F)F)cccc12 (stereo partly drawn) [6a, reference compound]	–	–	rapid; also recorded: within minutes to clean conversion
